In series [1] the test system is Pseudomonas aeruginosa. Kind of series: Antibacterial activity against Pseudomonas aeruginosa. The series is classed as functional.
Series [2] relates to Escherichia coli. Kind of series: Antibacterial activity against Escherichia coli. The series is classed as functional.
Series [3] concerns Klebsiella pneumoniae. Kind of series: Antibacterial activity against Klebsiella pneumoniae. The class given is functional.
For series [4], the system named is Acinetobacter baumannii. Kind of series: Antibacterial activity against Acinetobacter baumannii. The series is classed as functional.
Series [5] concerns Escherichia coli. Kind of series: Antibacterial activity against KPC producing Escherichia coli ATCC BAA-2340 assessed as inhibition of bacterial growth incubated for 18 to 24 hrs by broth microdilution method. The class given is functional. The conditions noted are these: time 18-24 hrs.
For series [6], the system named is Pseudomonas aeruginosa. Kind of series: Antibacterial activity against carbapenem resistant Pseudomonas aeruginosa clinical isolate 19-3 assessed as inhibition of bacterial growth incubated for 18 to 24 hrs by broth microdilution method. To be noted: time 18-24 hrs. The series is classed as functional.
The test system of series [7] is Escherichia coli. Kind of series: Antibacterial activity against Escherichia coli ATCC BAA-2523 assessed as inhibition of bacterial growth incubated for 18 to 24 hrs by broth microdilution method. The series is classed as functional. The conditions noted are these: time 18-24 hrs.
Series [8] relates to Escherichia coli. Kind of series: Antibacterial activity against Escherichia coli NCTC 13353 assessed as inhibition of bacterial growth incubated for 18 to 24 hrs by broth microdilution method. The series is classed as functional. To be noted: time 18-24 hrs.
Series [9] concerns Escherichia coli. Kind of series: Antibacterial activity against Escherichia coli clinical isolate 19-2 assessed as inhibition of bacterial growth incubated for 18 to 24 hrs by broth microdilution method. To be noted: time 18-24 hrs. The series is classed as functional.
For series [10], the system named is Pseudomonas aeruginosa. Nature of the series: Antibacterial activity against Pseudomonas aeruginosa clinical isolate 19-1 assessed as inhibition of bacterial growth incubated for 18 to 24 hrs by broth microdilution method. The series is classed as functional. The conditions noted are these: time 18-24 hrs.
Series [11] can be described thus: Selectivity index, ratio of IC50 for cytotoxicity against human HK-2 cells to MIC for antibacterial activity against Escherichia coli ATCC BAA-2523. The class given is toxicity, cell-based.
Series [12] in a line: Cytotoxicity against human HK-2 cells assessed as inhibition of cell growth incubated for 72 hrs by CCK-8 assay. The series is classed as toxicity, cell-based.
Series [13] concerns Pseudomonas aeruginosa. Kind of series: Antibacterial activity against carbapenem resistant Pseudomonas aeruginosa clinical isolate 17-1 assessed as inhibition of bacterial growth incubated for 18 to 24 hrs by broth microdilution method. The class given is functional. To be noted: time 18-24 hrs.
Series [14] has as its system Staphylococcus epidermidis. Kind of series: Antibacterial activity against methicillin resistant Staphylococcus epidermidis clinical isolate 19-5 assessed as inhibition of bacterial growth incubated for 18 to 24 hrs by broth microdilution method. The series is classed as functional. The conditions noted are these: time 18-24 hrs.
Series [15] deals with Staphylococcus aureus. Kind of series: Antibacterial activity against Staphylococcus aureus ATCC 29213 assessed as inhibition of bacterial growth incubated for 18 to 24 hrs by broth microdilution method. To be noted: time 18-24 hrs. The series is classed as functional.
Series [16] concerns Pseudomonas aeruginosa. Kind of series: Antibacterial activity against Pseudomonas aeruginosa ATCC 27853 assessed as inhibition of bacterial growth incubated for 18 to 24 hrs by broth microdilution method. To be noted: time 18-24 hrs. The class given is functional.
The subject of series [17] is Acinetobacter baumannii. Kind of series: Antibacterial activity against oxacillinase-27 producing Acinetobacter baumannii NCTC 13304 assessed as inhibition of bacterial growth incubated for 18 to 24 hrs by broth microdilution method. The class given is functional. The conditions noted are these: time 18-24 hrs.
The subject of series [18] is Staphylococcus aureus. Kind of series: Antibacterial activity against methicillin resistant Staphylococcus aureus ATCC 33591 assessed as inhibition of bacterial growth incubated for 18 to 24 hrs by broth microdilution method. The series is classed as functional. To be noted: time 18-24 hrs.
Series [19] has as its system Klebsiella pneumoniae. Kind of series: Antibacterial activity against carbapenem resistant Klebsiella pneumoniae clinical isolate 19-15 assessed as inhibition of bacterial growth incubated for 18 to 24 hrs by broth microdilution method. The class given is functional. The conditions noted are these: time 18-24 hrs.
The subject of series [20] is Klebsiella pneumoniae. Nature of the series: Antibacterial activity against carbapenem resistant Klebsiella pneumoniae clinical isolate 19-17 assessed as inhibition of bacterial growth incubated for 18 to 24 hrs by broth microdilution method. The series is classed as functional. To be noted: time 18-24 hrs.
For series [21], the system named is Klebsiella pneumoniae. Nature of the series: Antibacterial activity against KPC producing Klebsiella pneumoniae ATCC BAA-1705 assessed as inhibition of bacterial growth incubated for 18 to 24 hrs by broth microdilution method. The series is classed as functional. To be noted: time 18-24 hrs.
Series [22] relates to Acinetobacter baumannii. Kind of series: Antibacterial activity against carbapenem resistant Acinetobacter baumannii clinical isolate 19-8 assessed as inhibition of bacterial growth incubated for 18 to 24 hrs by broth microdilution method. The class given is functional. The conditions noted are these: time 18-24 hrs.
Series [23] has as its system Staphylococcus epidermidis. Kind of series: Antibacterial activity against methicillin resistant Staphylococcus epidermidis clinical isolate 19-6 assessed as inhibition of bacterial growth incubated for 18 to 24 hrs by broth microdilution method. The series is classed as functional. The conditions noted are these: time 18-24 hrs.

Converted amounts (≈) assume the structure as drawn. Bridge positions count the residues as written; N and C are the ends. Square brackets hold non-standard residues; d marks the D form. Peptide text beside a SMILES is read from it. * marks the point of attachment. X1 = CC[C@H](C)CCCCC(=O)*; Dab = NCC[C@H](N)C(=O)O Bounds are passed on as bounds.

Turning to `CC[C@H](C)CCCCC(=O)N[C@@H](CCN)C(=O)N[C@H](C(=O)N[C@@H](CCN)C(=O)N[C@H]1CCNC(=O)[C@H]([C@@H](C)O)NC(=O)[C@H](CCN)NC(=O)[C@H](CCN)NC(=O)[C@H](CC(C)C)NC(=O)[C@@H](CC(C)C)NC(=O)[C@H](CCN)NC1=O)[C@@H](C)O` (X1-[Dab]T[Dab][Dab][Dab][dL]L[Dab][Dab]T; lactam 4-C), the minimum inhibitory concentration (MIC) in the series with Pseudomonas aeruginosa [1] came out at 0.2 µg/mL (≈ 0.171 µM); with Escherichia coli [2], 0.05 µg/mL (≈ 0.0428 µM); against Klebsiella pneumoniae [3], 1 µg/mL (≈ 0.855 µM); with Acinetobacter baumannii [4], 1 µg/mL (≈ 0.855 µM).

As for `CC(C)C[C@@H]1NC(=O)[C@@H](CC(C)C)NC(=O)[C@H](CCN)NC(=O)[C@@H](NC(=O)[C@@H](CCN)NC(=O)CCCCCc2ccccc2)CCNC(=O)[C@H]([C@@H](C)O)NC(=O)[C@H](CCN)NC(=O)[C@H](CCN)NC1=O`, the MIC was determined as 8 µg/mL (≈ 7.98 µM) in the series on Escherichia coli [5]; 4 µg/mL (≈ 3.99 µM) with Pseudomonas aeruginosa [6]; 16 µg/mL (≈ 16 µM) in the series with Escherichia coli [7]; 32 µg/mL (≈ 31.9 µM) in the series with Escherichia coli [8]; 16 µg/mL (≈ 16 µM) in the series with Escherichia coli [9]; 2 µg/mL (≈ 2 µM) in the series on Pseudomonas aeruginosa [10]. The MIC with Pseudomonas aeruginosa [13] is 4 µg/mL (≈ 3.99 µM); in series [14] it was 8 µg/mL (≈ 7.98 µM); in the series on Staphylococcus aureus [15] it was greater than 64 µg/mL; with Pseudomonas aeruginosa [16], 1 µg/mL (≈ 0.998 µM); in the series on Acinetobacter baumannii [17] it was greater than 64 µg/mL; in the series on Staphylococcus aureus [18] it was greater than 64 µg/mL. Further, the minimum inhibitory concentration (MIC) in the series on Klebsiella pneumoniae [19] is greater than 64 µg/mL; with Klebsiella pneumoniae [20] it was greater than 64 µg/mL; in the series on Klebsiella pneumoniae [21], 8 µg/mL (≈ 7.98 µM); with Acinetobacter baumannii [22] it was greater than 64 µg/mL; in series [23], 64 µg/mL (≈ 63.9 µM). Besides, the selectivity ratio in series [11] is 19.3. The IC50 at 72 h in series [12] came to 309 µg/mL (≈ 309 µM).

As for `CCCCCCCCCC(=O)N[C@H](CCN)C(=O)N[C@H]1CCCNC(=O)[C@H]([C@@H](C)O)NC(=O)[C@H](CCN)NC(=O)[C@H](CCN)NC(=O)[C@H](CC(C)C)NC(=O)[C@@H](CC(C)C)NC(=O)[C@H](CCN)NC1=O`, the MIC in the series with Escherichia coli [5] was determined as 16 µg/mL (≈ 16.1 µM); in the series with Pseudomonas aeruginosa [6], 2 µg/mL (≈ 2.01 µM); in the series with Escherichia coli [7] it was 16 µg/mL (≈ 16.1 µM); in the series on Escherichia coli [8], 32 µg/mL (≈ 32.1 µM); in the series with Escherichia coli [9], 16 µg/mL (≈ 16.1 µM); with Pseudomonas aeruginosa [10], 4 µg/mL (≈ 4.01 µM). For the same molecule, the MIC with Pseudomonas aeruginosa [13] was 4 µg/mL (≈ 4.01 µM); in series [14] it was 4 µg/mL (≈ 4.01 µM); with Staphylococcus aureus [15] it was greater than 64 µg/mL; in the series with Pseudomonas aeruginosa [16] it was 4 µg/mL (≈ 4.01 µM); in the series with Acinetobacter baumannii [17], greater than 64 µg/mL; with Staphylococcus aureus [18] it was greater than 64 µg/mL. In addition, the MIC is 16 µg/mL (≈ 16.1 µM) in the series with Klebsiella pneumoniae [19]; 64 µg/mL (≈ 64.2 µM) in the series with Klebsiella pneumoniae [20]; 16 µg/mL (≈ 16.1 µM) in the series on Klebsiella pneumoniae [21]; greater than 64 µg/mL in the series on Acinetobacter baumannii [22]; 32 µg/mL (≈ 32.1 µM) in [23]. Moreover, in series [11], the selectivity ratio was determined as 9.9. For the same molecule, the half-maximal inhibitory concentration (IC50) at 72 h in [12] was found to be 158 µg/mL (≈ 159 µM).

`CCCCCCCC(=O)N[C@H](CCN)C(=O)N[C@H]1CCNC(=O)[C@H](CC(C)C)NC(=O)[C@H](CCN)NC(=O)[C@H](CCN)NC(=O)[C@H](CC(C)C)NC(=O)[C@@H](CC(C)C)NC(=O)[C@H](CCN)NC1=O`: the MIC turned out to be 2 µg/mL (≈ 2.07 µM) in the series on Escherichia coli [5]; 4 µg/mL (≈ 4.14 µM) with Pseudomonas aeruginosa [6]; 32 µg/mL (≈ 33.1 µM) in the series with Escherichia coli [7]; 16 µg/mL (≈ 16.6 µM) in the series with Escherichia coli [8]; 32 µg/mL (≈ 33.1 µM) with Escherichia coli [9]; 8 µg/mL (≈ 8.28 µM) with Pseudomonas aeruginosa [10]. Moreover, the MIC in the series with Pseudomonas aeruginosa [13] is 2 µg/mL (≈ 2.07 µM); in series [14] it was 8 µg/mL (≈ 8.28 µM); in the series with Staphylococcus aureus [15], greater than 64 µg/mL; in the series on Pseudomonas aeruginosa [16] it was 1 µg/mL (≈ 1.03 µM); with Acinetobacter baumannii [17], 8 µg/mL (≈ 8.28 µM); in the series on Staphylococcus aureus [18], greater than 64 µg/mL. The minimum inhibitory concentration (MIC) was 16 µg/mL (≈ 16.6 µM) with Klebsiella pneumoniae [19]; 16 µg/mL (≈ 16.6 µM) in the series with Klebsiella pneumoniae [20]; 2 µg/mL (≈ 2.07 µM) with Klebsiella pneumoniae [21]; 16 µg/mL (≈ 16.6 µM) in the series on Acinetobacter baumannii [22]; 64 µg/mL (≈ 66.2 µM) in series [23]. Further, the selectivity ratio in series [11] came to 6.2. Besides, in [12], the IC50 at 72 h was determined as 198 µg/mL (≈ 205 µM).

The values above are taken from ChEMBL document CHEMBL5380795, “Design, Synthesis, and Bioactivity Investigation of Cyclic Lipopeptide Antibiotics Containing Eight to Nine Amino Acids” (J Med Chem, 2023).
